In patent publication US20160355465A1, “NOVEL MODIFIED CURCUMINS AND THEIR USES” (THE RESEARCH FOUNDATION OF STATE UNIVERSITY OF NEW YORK, priority 2011, published 2016):

Assays:
MMP-13 = MMP-13 (Homo sapiens, UniProt P45452); test: fluorimetric assay of MMP activity; format: biochemical; settings: synthetic fluorescent peptide substrate Mca-Lys-Pro-Leu-Gly-Leu-Dpa-Ala-Arg-NH2
skin wounds = test: healing of 6 mm skin wounds in streptozotocin-diabetic rats, clinical wound diameter; format: in vivo, rat; settings: 7 days
Method: Three weeks after inducing diabetes, the back skin of all the rats was shaved and a series of 6 standard wounds per rat, each 6 mm in diameter, was made using a surgical trephine.
A finely-ground sample (0.1 g) of Compound 4 [4-(phenylaminocarbonyl)-1,7-bis(4-hydroxyphenyl)hepta-1e,6e-diene-3,5-dione] was added to petrolatum jelly (9 g) and the mixture was homogenized for 15 minutes at 25° C., then allowed to settle for 5 minutes. This procedure was repeated nine times, producing a homogeneous product having a cream-like consistency. This was then used in topical application to wounds.
The following five experimental groups (n=3 rats per group) were established: Non-diabetic control rats (NDC) treated by daily application of white petrolatum jelly (“vehicle”) for 7 days, diabetic rats (D group) treated daily with vehicle alone; diabetics treated by daily topical application of either a 1% (D+1%) or a 3% (D+3%) suspension of Compound 4 in the vehicle; and diabetics treated systemically by daily oral intubation of a 1 ml suspension of Compound 4 (in carboxymethylcellulose) at a dose of 30 mg/kg over the 7-day treatment protocol (D+30 mg/kg). At the end of this time period, the circular wounds were clinically assessed by measuring diameter of the wound in millimeters, blood samples were collected, the rats were sacrificed, and skin samples collected for histological/histochemical, and biochemical assessment as described below. • 1) On day 7 after inducing wound healing, the animals were anesthetized and blood samples collected for blood glucose (one Touch Ultra Glucometer; Johnson & Johnson, New Brunswick, N.J.) and Hemoglobin A1c (A1c Now+; Bayer Health Care, Sunnyvale, Calif.) measurements. • 2) Photographs were taken for clinical observations to assess wound closure. The % reduction of the wound surface was calculated by measuring the diameter (in millimeters) of each wound before and after the treatment protocol. • 3) Wound tissues on day 7 were excised from 3 sites per rat and pooled for biochemical analysis. […]

MMP-1 = target: T1, MMP-1 (Homo sapiens, UniProt P03956); test: fluorimetric assay of MMP activity; format: biochemical; settings: synthetic fluorescent peptide substrate Mca-Lys-Pro-Leu-Gly-Leu-Dpa-Ala-Arg-NH2
T1 sequence (P03956 100-469): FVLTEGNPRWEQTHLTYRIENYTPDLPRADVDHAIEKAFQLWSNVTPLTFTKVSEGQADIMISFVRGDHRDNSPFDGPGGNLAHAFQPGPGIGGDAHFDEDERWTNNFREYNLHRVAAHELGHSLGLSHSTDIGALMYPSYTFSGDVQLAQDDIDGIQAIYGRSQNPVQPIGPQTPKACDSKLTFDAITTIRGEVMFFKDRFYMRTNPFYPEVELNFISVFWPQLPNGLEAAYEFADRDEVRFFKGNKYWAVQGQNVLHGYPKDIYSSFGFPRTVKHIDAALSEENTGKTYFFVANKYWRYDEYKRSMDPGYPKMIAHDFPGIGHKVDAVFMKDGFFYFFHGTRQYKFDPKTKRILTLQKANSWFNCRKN

O=C(/C=C/c1ccc(O)cc1)C(C(=O)/C=C/c1ccc(O)cc1)C(=O)Nc1ccccc1 [Compound 4, 1,7-Bis(4-hydroxyphenyl)-4-N-phenylaminocarbonylhepta-1E, 6E-dien-3,5-dione]
IC50 (MMP-13): 2.7 ± 0.7 µM
reduction in wound diameter (skin wounds; 1% topical in petrolatum jelly, daily, non-diabetic control 30%): 35%
wound healing (in words) (skin wounds; 3% topical, daily): significant increase in wound healing over that of the untreated diabetic control
wound healing (in words) (skin wounds; systemic, oral 30 mg/kg daily): returned wound healing characteristics to that seen in the non-diabetic control group
IC50 (MMP-1): 69.8 ± 2 µM
